Results on nine compounds are retold here after ChEMBL document CHEMBL1649512, “Reduced susceptibility to cefepime among Escherichia coli clinical isolates producing novel variants of CMY-2 beta-lactamase” (2009).

≈ marks a conversion by molar mass, not a printed value. A value given as a limit tells only on which side of the number the result lay.

Common to all, as to assay type: functional
For assay [1], the system named is Escherichia coli. Kind of assay: Antibacterial activity against Escherichia coli DH10B harboring plasmid BCSK carrying beta-lactamase CMY-44 gene by Etest method. Particulars: K-12 DH10B.
The subject of assay [2] is Escherichia coli. Kind of assay: Antibacterial activity against Escherichia coli 34943 harboring beta-lactamase CMY-44 gene by Etest method.
In assay [3] the test system is Escherichia coli. Kind of assay: Antibacterial activity against Escherichia coli DH10B harboring plasmid BCSK by Etest method. Particulars: K-12 DH10B.
Assay [4] has as its system Escherichia coli. The assay is described as follows: Antibacterial activity against Escherichia coli 1285 harboring beta-lactamase CMY-33 gene by Etest method.
Assay [5] has as its system Escherichia coli. The assay is described as follows: Antibacterial activity against Escherichia coli DH10B harboring plasmid BCSK carrying beta-lactamase CMY-2 gene by Etest method. To be noted: K-12 DH10B.
Assay [6] has as its system Escherichia coli. The assay is described as follows: Antibacterial activity against Escherichia coli YD006 harboring beta-lactamase CMY-33 gene by Etest method.
Assay [7] concerns Escherichia coli. The assay is described as follows: Antibacterial activity against Escherichia coli DH10B harboring plasmid BCSK carrying beta-lactamase CMY-33 gene by Etest method. Particulars: K-12 DH10B.

Consider `CC(C)(O/N=C(\C(=O)N[C@@H]1C(=O)N2C(C(=O)[O-])=C(C[n+]3ccccc3)CS[C@H]12)c1csc(N)n1)C(=O)O` [CEFTAZIDIME], for which the MIC – broadly, the lowest concentration that inhibits growth of the organism – was above 256 mg/L in the assay with Escherichia coli [1]; above 256 mg/L in the assay on Escherichia coli [2]; 0.5 mg/L (≈ 0.915 µM) in the assay on Escherichia coli [3]; above 256 mg/L in the assay on Escherichia coli [4]; above 256 mg/L with Escherichia coli [5]; above 256 mg/L in the assay on Escherichia coli [6]. Further, the MIC in the assay on Escherichia coli [7] was above 256 mg/L.

As to `C[C@@H](O)[C@H]1C(=O)N2C(C(=O)O)=C(S[C@@H]3CN[C@H](C(=O)Nc4cccc(C(=O)O)c4)C3)[C@H](C)[C@H]12` [ERTAPENEM], the MIC with Escherichia coli [1] was found to be 0.064 mg/L (≈ 0.135 µM); with Escherichia coli [2], 4 mg/L (≈ 8.41 µM); in the assay on Escherichia coli [3] it was 0.012 mg/L (≈ 0.0252 µM); against Escherichia coli [4], 1 mg/L (≈ 2.1 µM); in the assay with Escherichia coli [5] it was 0.094 mg/L (≈ 0.198 µM); in the assay with Escherichia coli [6], 0.064 mg/L (≈ 0.135 µM). For the same compound, the MIC in the assay with Escherichia coli [7] came out at 0.032 mg/L (≈ 0.0673 µM).

Turning to `CO/N=C(\C(=O)N[C@@H]1C(=O)N2C(C(=O)O)=C(COC(N)=O)CS[C@H]12)c1ccco1` [CEFUROXIME], the MIC was 64 mg/L (≈ 151 µM) in the assay on Escherichia coli [1]; above 256 mg/L against Escherichia coli [2]; 6 mg/L (≈ 14.1 µM) against Escherichia coli [3]; above 256 mg/L against Escherichia coli [4]; above 256 mg/L against Escherichia coli [5]; 96 mg/L (≈ 226 µM) against Escherichia coli [6]. The compound further registered an MIC in the assay with Escherichia coli [7] of 128 mg/L (≈ 302 µM).

`CO/N=C(\C(=O)N[C@@H]1C(=O)N2C(C(=O)[O-])=C(C[N+]3(C)CCCC3)CS[C@H]12)c1csc(N)n1` [CEFEPIME]: the MIC in the assay with Escherichia coli [1] was determined as 3 mg/L (≈ 6.24 µM); with Escherichia coli [2], 32 mg/L (≈ 66.6 µM); in the assay with Escherichia coli [3], 0.032 mg/L (≈ 0.0666 µM); against Escherichia coli [4] it was 96 mg/L (≈ 200 µM); against Escherichia coli [5] it was 0.25 mg/L (≈ 0.52 µM); against Escherichia coli [6], 6 mg/L (≈ 12.5 µM). Moreover, inhibition of growth in the assay with Escherichia coli [7] (MIC) required 6 mg/L (≈ 12.5 µM).

Turning to `CCN1CCN(C(=O)N[C@@H](C(=O)N[C@@H]2C(=O)N3[C@@H]2SC(C)(C)[C@@H]3C(=O)O)c2ccccc2)C(=O)C1=O` [PIPERACILLIN], the MIC against Escherichia coli [1] is 32 mg/L (≈ 61.8 µM); in the assay with Escherichia coli [2], above 256 mg/L; with Escherichia coli [3], 2 mg/L (≈ 3.86 µM); with Escherichia coli [4] it was above 256 mg/L; in the assay with Escherichia coli [5], 128 mg/L (≈ 247 µM); in the assay on Escherichia coli [6], 12 mg/L (≈ 23.2 µM). The MIC in the assay on Escherichia coli [7] came to 64 mg/L (≈ 124 µM).

`CO[C@@]1(NC(=O)Cc2cccs2)C(=O)N2C(C(=O)O)=C(COC(N)=O)CS[C@@H]21` [CEFOXITIN]: the MIC was 32 mg/L (≈ 74.9 µM) in the assay on Escherichia coli [1]; above 256 mg/L in the assay with Escherichia coli [2]; 6 mg/L (≈ 14 µM) in the assay on Escherichia coli [3]; above 256 mg/L in the assay on Escherichia coli [4]; above 256 mg/L in the assay on Escherichia coli [5]; 24 mg/L (≈ 56.1 µM) with Escherichia coli [6]. Further, the MIC with Escherichia coli [7] was 24 mg/L (≈ 56.1 µM).

Take `C[C@H]1[C@H](NC(=O)/C(=N\OC(C)(C)C(=O)O)c2csc(N)n2)C(=O)N1S(=O)(=O)O` [AZTREONAM]: the MIC amounted to 4 mg/L (≈ 9.19 µM) in the assay on Escherichia coli [1]; 24 mg/L (≈ 55.1 µM) against Escherichia coli [2]; 64 mg/L (≈ 147 µM) with Escherichia coli [4]; 8 mg/L (≈ 18.4 µM) in the assay with Escherichia coli [5]; 6 mg/L (≈ 13.8 µM) against Escherichia coli [6]; 16 mg/L (≈ 36.7 µM) with Escherichia coli [7].

For the compound `CC1(C)S[C@@H]2[C@H](NC(=O)[C@H](N)c3ccccc3)C(=O)N2[C@H]1C(=O)O` [AMPICILLIN], the MIC in the assay with Escherichia coli [1] was above 256 mg/L; against Escherichia coli [2] it was above 256 mg/L; in the assay with Escherichia coli [3], 3 mg/L (≈ 8.59 µM); against Escherichia coli [4], above 256 mg/L; in the assay on Escherichia coli [5] it was above 256 mg/L; with Escherichia coli [6] it was 128 mg/L (≈ 366 µM). The compound further returned an MIC in the assay on Escherichia coli [7] above 256 mg/L.

With `CO/N=C(\C(=O)N[C@@H]1C(=O)N2C(C(=O)O)=C(COC(C)=O)CS[C@H]12)c1csc(N)n1` [CEFOTAXIME], the MIC is 8 mg/L (≈ 17.6 µM) in the assay with Escherichia coli [1]; 32 mg/L (≈ 70.3 µM) against Escherichia coli [2]; 0.064 mg/L (≈ 0.141 µM) against Escherichia coli [3]; above 256 mg/L in the assay on Escherichia coli [4]; 16 mg/L (≈ 35.1 µM) in the assay with Escherichia coli [5]; 8 mg/L (≈ 17.6 µM) against Escherichia coli [6]. Further, in the assay with Escherichia coli [7], 12 mg/L (≈ 26.3 µM) was the least that counted as inhibitory (MIC).
